Assay results reported in US11382918B2, “Methods for treating Huntington's Disease” (PTC Therapeutics, Inc., priority 2017, dated 2022).
Structures can show the parent of a compound that is named as a salt.

System: Endogenous Huntingtin Protein (HTT)
Test: Endogenous Huntingtin Protein Assay (ELISA-based MSD electrochemiluminescence)
Format: cell-based
Details: Table 1
Summary of the method: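 MSD electrochemiluminescence sandwich ELISA for endogenous HTT: sample lysates captured overnight at 4 °C on MW1 (expanded polyglutamine) or MAB2166 antibody. Detection used rabbit monoclonal #5656S, then goat anti-rabbit SULFO-TAG antibody, each 1 h at room temperature.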

Compound | IC50 [nM]
CCc1nc(C)cn2nc(-c3cc(=O)n4cc(N5C[C@@H](C)N[C@@H](C)C5)ccc4n3)cc12 [compound 633, 7-[(3R,5S)-3,5-dimethylpiperazin-1-yl]-2-(4-ethyl-6-methylpyrazolo[1,5-a]pyrazin-2-yl)-4H-pyrido[1,2-a]pyrimidin-4-one] | 3000 to 33000
CCN1CC=C(c2ccc3nc(-c4ccc5c(cnn5C)c4)cc(=O)n3c2)CC1 [compound 463, 7-(1-ethyl-1,2,3,6-tetrahydropyridin-4-yl)-2-(1-methyl-1H-indazol-5-yl)-4H-pyrido[1,2-a]pyrimidin-4-one] | 3000 to 33000
Cc1cn2cc(-c3cc(=O)n4cc(N5CCN[C@H](C)C5)ccc4n3)cc(C(F)(F)F)c2n1 [compound 734, 7-[(3R)-3-methylpiperazin-1-yl]-2-[2-methyl-8-(trifluoromethyl)imidazo[1,2-a]pyridin-6-yl]-4H-pyrido[1,2-a]pyrimidin-4-one] | 3000 to 33000
O=c1cc(-c2cn[nH]c2)nc2ccc(N3CCNCC3)cn12 [compound 855, 7-(piperazin-1-yl)-2-(1H-pyrazol-4-yl)-4H-pyrido[1,2-a]pyrimidin-4-one hydrochloride (1:1)] | 3000 to 33000
Cc1cn2nc(-c3cc(=O)n4cc(C5=CCN(C6CCC6)CC5)ccc4n3)cc2c(C)n1 [compound 356, 7-(1-cyclobutyl-1,2,3,6-tetrahydropyridin-4-yl)-2-(4,6-dimethylpyrazolo[1,5-a]pyrazin-2-yl)-4H-pyrido[1,2-a]pyrimidin-4-one] | 3000 to 33000
CCCc1nc(C)cn2nc(-c3cc(=O)n4cc(N5CCNCC5)ccc4n3)cc12 [compound 723, 2-(6-methyl-4-propylpyrazolo[1,5-a]pyrazin-2-yl)-7-(piperazin-1-yl)-4H-pyrido[1,2-a]pyrimidin-4-one] | 3000 to 33000
Cn1cc2cc(-c3cc(=O)n4cc(N5CCNCC5)ncc4n3)ccc2n1 [compound 586, 2-(2-methyl-2H-indazol-5-yl)-7-(piperazin-1-yl)-4H-pyrazino[1,2-a]pyrimidin-4-one] | 3000 to 33000
Cc1cn2nc(-c3cc(=O)n4cc(N5CCNCC5)ccc4n3)cc2c(C2CC2)n1 [compound 683, 2-(4-cyclopropyl-6-methylpyrazolo[1,5-a]pyrazin-2-yl)-7-(piperazin-1-yl)-4H-pyrido[1,2-a]pyrimidin-4-one] | 3000 to 33000
Cc1nc2ccc(-c3cc(=O)n4cc(N5CCNCC5)ccc4n3)cc2o1 [compound 133, 2-(2-methyl-1,3-benzoxazol-6-yl)-7-(piperazin-1-yl)-4H-pyrido[1,2-a]pyrimidin-4-one] | 500 to 1000
Cc1cn2cc(-c3cc(=O)n4cc(N5C[C@@H](C)N[C@@H](C)C5)ccc4n3)cc(C(F)(F)F)c2n1 [compound 736, 7-[(3R,5S)-3,5-dimethylpiperazin-1-yl]-2-[2-methyl-8-(trifluoromethyl)imidazo[1,2-a]pyridin-6-yl]-4H-pyrido[1,2-a]pyrimidin-4-one] | 3000 to 33000
Cc1nc(-c2cc(=O)n3cc(C4=CCNCC4)ccc3n2)cc2cn(C)nc12 [compound 862, 2-(2,7-dimethyl-2H-pyrazolo[3,4-c]pyridin-5-yl)-7-(1,2,3,6-tetrahydropyridin-4-yl)-4H-pyrido[1,2-a]pyrimidin-4-one hydrochloride (1:2)] | 1000 to 3000
CCN1CCC(c2cn3c(=O)cc(-c4ccc5nn(C)cc5c4)nc3c(C)n2)CC1 [compound 864, 7-(1-ethylpiperidin-4-yl)-9-methyl-2-(2-methyl-2H-indazol-5-yl)-4H-pyrazino[1,2-a]pyrimidin-4-one] | < 100
CN1CC=C(c2cn3c(=O)cc(-c4ccc5c(cnn5C)c4)nc3cn2)CC1 [compound 506, 2-(1-methyl-1H-indazol-5-yl)-7-(1-methyl-1,2,3,6-tetrahydropyridin-4-yl)-4H-pyrazino[1,2-a]pyrimidin-4-one] | 3000 to 33000
Cc1nc2ccc(-c3cc(=O)n4cc(N5CCNCC5)ccc4n3)cn2c1C [compound 125, 2-(2,3-dimethylimidazo[1,2-a]pyridin-6-yl)-7-(piperazin-1-yl)-4H-pyrido[1,2-a]pyrimidin-4-one] | 3000 to 33000

The remaining lines, values ahead:

IC50 [nM] | Compound
3000 to 33000 | Cn1cc2cc(-c3cc(=O)n4cc(N5CCN(CCO)CC5)ncc4n3)ccc2n1 [compound 591, 7-[4-(2-hydroxyethyl)piperazin-1-yl]-2-(2-methyl-2H-indazol-5-yl)-4H-pyrazino[1,2-a]pyrimidin-4-one]
< 100 | Cc1nc(C2CCNCC2)cn2c(=O)cc(-c3cc(F)c4nn(C)cc4c3)nc12 [compound 869, 2-(7-fluoro-2-methyl-2H-indazol-5-yl)-9-methyl-7-(piperidin-4-yl)-4H-pyrazino[1,2-a]pyrimidin-4-one]
3000 to 33000 | Cc1cn2ccc(-c3cc(=O)n4cc(C5CCNCC5)ccc4n3)cc2n1 [compound 556, 2-(2-methylimidazo[1,2-a]pyridin-7-yl)-7-(piperidin-4-yl)-4H-pyrido[1,2-a]pyrimidin-4-one]
3000 to 33000 | CCN1CCN(c2cn3c(=O)cc(-c4ccc5nn(C)cc5c4)nc3cn2)CC1 [compound 590, 7-(4-ethylpiperazin-1-yl)-2-(2-methyl-2H-indazol-5-yl)-4H-pyrazino[1,2-a]pyrimidin-4-one]
< 100 | Cc1cc(-c2cc(=O)n3cc(C4CCNCC4)nc(C)c3n2)cc2cn(C)nc12 [compound 871, 2-(2,7-dimethyl-2H-indazol-5-yl)-9-methyl-7-(piperidin-4-yl)-4H-pyrazino[1,2-a]pyrimidin-4-one hydrochloride (1:1)]
3000 to 33000 | Cc1cc(=O)n2cc(-c3cc(=O)n4cc(N5CCNCC5)ccc4n3)ccc2n1 [compound 837, 2′-methyl-7-(piperazin-1-yl)-4H,4′H-2,7′-bipyrido[1,2-a]pyrimidine-4,4′-dione]
3000 to 33000 | Cc1cn2nc(-c3cc(=O)n4cc(N5CCN(C)CC5)ccc4n3)cc2c(N(C)C)n1 [compound 843, 2-[4-(dimethylamino)-6-methylpyrazolo[1,5-a]pyrazin-2-yl]-7-(4-methylpiperazin-1-yl)-4H-pyrido[1,2-a]pyrimidin-4-one]
1000 to 3000 | Cc1cn2nc(-c3cc(=O)n4cc(N5CCN(CCO)[C@H](C)C5)ccc4n3)cc2c(C)n1 [compound 532, 2-(4,6-dimethylpyrazolo[1,5-a]pyrazin-2-yl)-7-[(3R)-4-(2-hydroxyethyl)-3-methylpiperazin-1-yl]-4H-pyrido[1,2-a]pyrimidin-4-one]
3000 to 33000 | O=c1cc(-c2cnc(O)c(F)c2)nc2ccc(N3CCNCC3)cn12 [compound 839, 2-(5-fluoro-6-hydroxypyridin-3-yl)-7-(piperazin-1-yl)-4H-pyrido[1,2-a]pyrimidin-4-one]
1000 to 3000 | Cc1cn2cc(-c3ccc4nc(C5CCNCC5)cc(=O)n4c3)ccc2n1 [compound 409, 7-(2-methylimidazo[1,2-a]pyridin-6-yl)-2-(piperidin-4-yl)-4H-pyrido[1,2-a]pyrimidin-4-one]
3000 to 33000 | Cn1cc2cc(-c3cc(=O)n4cc(C5CCNCC5)ccc4n3)ccc2n1 [compound 606, 2-(2-methyl-2H-indazol-5-yl)-7-(piperidin-4-yl)-4H-pyrido[1,2-a]pyrimidin-4-one]
3000 to 33000 | Cc1cn2nc(-c3cc(=O)n4cc(N5CCN[C@@H](C)C5)ccc4n3)cc2c(C)n1 [compound 121, 2-(4,6-dimethylpyrazolo[1,5-a]pyrazin-2-yl)-7-[(3S)-3-methylpiperazin-1-yl]-4H-pyrido[1,2-a]pyrimidin-4-one]
